Source: PubChem BioAssay AID1963833 (Molecular Pharmacology Branch, DTP, NCI, 2024)

Test system: 883617-216-R-J1-PDC complex spheroid viability
Assay: Anticancer human tumor 883617-216-R-J1-PDC patient-derived bladder carcinoma cell line growth inhibition [POLQ]
Details: for IC50: curve of first compound; for viability, T/C: stronger effect = lower value
Procedure, shortened: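 Patient-derived tumour cells were co-cultured with HUVEC and mesenchymal stem cells as multicellular spheroids at 37 °C. They were treated with POLQ inhibitors (novobiocin, ART-558, RP6685) alone or combined with other agents. Top concentrations were at or near clinical Cmax (otherwise 10 microM; SN-38 at 1 microM), decreasing in half-log steps.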

[1] = second compound 0.0316 µM, first compound 0.0316 µM
[2] = second compound 0.0316 µM, first compound 0.1 µM
[3] = second compound 0.1 µM, first compound 0.0316 µM
[4] = second compound 0.1 µM, first compound 0.1 µM
[5] = second compound 0.316 µM, first compound 0.0316 µM
[6] = second compound 0.316 µM, first compound 0.1 µM
[7] = second compound 1 µM, first compound 0.0316 µM
[8] = second compound 1 µM, first compound 0.1 µM
[9] = second compound 3.16 µM, first compound 0.0316 µM
[10] = second compound 3.16 µM, first compound 0.1 µM
[11] = second compound 10 µM, first compound 0.0316 µM
[12] = second compound 10 µM, first compound 0.1 µM
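Note: spheroids exposed to compounds for seven days before readout.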
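Throughout, for viability, T/C: 100% = DMSO vehicle control viability.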

With CC(=O)O[C@H]1C(=O)[C@@]2(C)[C@H]([C@H](OC(=O)c3ccccc3)[C@]3(O)C[C@H](OC(=O)[C@H](O)[C@@H](NC(=O)c4ccccc4)c4ccccc4)C(C)=C1C3(C)C)[C@]1(OC(C)=O)CO[C@@H]1C[C@@H]2O + COC1C(OC(N)=O)C(O)C(Oc2ccc3c(O)c(NC(=O)c4ccc(O)c(CC=C(C)C)c4)c(=O)oc3c2C)OC1(C)C the IC50 (second compound 0.0316 µM) was < 9.49 nM, the IC50 (second compound 0.1 µM) was < 9.49 nM and the IC50 (second compound 0.316 µM) was < 9.49 nM. The IC50 (second compound 1 µM) was < 9.49 nM, the IC50 (second compound 3.16 µM) was < 9.49 nM and the IC50 (second compound 10 µM) was < 9.49 nM. For the same molecule, the viability, T/C (second compound 0.0316 µM, first compound 0.00949 µM) was 39.5%, the viability, T/C (second compound 0.0316 µM, first compound 0.03 µM) was 27.8% and the viability, T/C (second compound 0.0316 µM, first compound 0.0949 µM) was 26.4%. The viability, T/C (second compound 0.0316 µM, first compound 0.3 µM) was 20.8%, the viability, T/C (second compound 0.0316 µM, first compound 0.949 µM) was 18.2% and the viability, T/C (second compound 0.0316 µM, first compound 3 µM) was 19.8%. The viability, T/C (second compound 0.1 µM, first compound 0.00949 µM) was 40.2%, the viability, T/C (second compound 0.1 µM, first compound 0.03 µM) was 34.2% and the viability, T/C (second compound 0.1 µM, first compound 0.0949 µM) was 23.4%. For the same molecule, the viability, T/C (second compound 0.1 µM, first compound 0.3 µM) was 23.7%, the viability, T/C (second compound 0.1 µM, first compound 0.949 µM) was 19.6% and the viability, T/C (second compound 0.1 µM, first compound 3 µM) was 20.7%. It also gave a viability, T/C (second compound 0.316 µM, first compound 0.00949 µM) of 50.6%, a viability, T/C (second compound 0.316 µM, first compound 0.03 µM) of 27.9% and a viability, T/C (second compound 0.316 µM, first compound 0.0949 µM) of 25.4%. For the same molecule, the viability, T/C (second compound 0.316 µM, first compound 0.3 µM) was 17.5%, the viability, T/C (second compound 0.316 µM, first compound 0.949 µM) was 16.1% and the viability, T/C (second compound 0.316 µM, first compound 3 µM) was 20.6%. The viability, T/C (second compound 1 µM, first compound 0.00949 µM) was 42.2%, the viability, T/C (second compound 1 µM, first compound 0.03 µM) was 28.2% and the viability, T/C (second compound 1 µM, first compound 0.0949 µM) was 19%. It also gave a viability, T/C (second compound 1 µM, first compound 0.3 µM) of 26%, a viability, T/C (second compound 1 µM, first compound 0.949 µM) of 20.5% and a viability, T/C (second compound 1 µM, first compound 3 µM) of 15.9%. For the same molecule, the viability, T/C (second compound 3.16 µM, first compound 0.00949 µM) was 42.7%, the viability, T/C (second compound 3.16 µM, first compound 0.03 µM) was 31.1% and the viability, T/C (second compound 3.16 µM, first compound 0.0949 µM) was 21.9%. For the same molecule, the viability, T/C (second compound 3.16 µM, first compound 0.3 µM) was 22.7%, the viability, T/C (second compound 3.16 µM, first compound 0.949 µM) was 23.7% and the viability, T/C (second compound 3.16 µM, first compound 3 µM) was 17.1%. It also gave a viability, T/C (second compound 10 µM, first compound 0.00949 µM) of 42.2%, a viability, T/C (second compound 10 µM, first compound 0.03 µM) of 27.1% and a viability, T/C (second compound 10 µM, first compound 0.0949 µM) of 15.1%. For the same molecule, the viability, T/C (second compound 10 µM, first compound 0.3 µM) was 16%, the viability, T/C (second compound 10 µM, first compound 0.949 µM) was 21% and the viability, T/C (second compound 10 µM, first compound 3 µM) was 21.6%.

With C=CC(=O)N1CCN(c2nc(=O)n(-c3c(C)ccnc3C(C)C)c3nc(-c4c(O)cccc4F)c(F)cc23)C(C)C1 (stereo unspecified) + COC1C(OC(N)=O)C(O)C(Oc2ccc3c(O)c(NC(=O)c4ccc(O)c(CC=C(C)C)c4)c(=O)oc3c2C)OC1(C)C the IC50 (second compound 0.0316 µM) was > 10000 nM, the IC50 (second compound 0.1 µM) was > 10000 nM and the IC50 (second compound 0.316 µM) was > 10000 nM. The IC50 (second compound 1 µM) was > 10000 nM, the IC50 (second compound 3.16 µM) was > 10000 nM and the IC50 (second compound 10 µM) was > 10000 nM. For the same molecule, the viability, T/C [1] was 79.2%, the viability, T/C [2] was 77.5% and the viability, T/C (second compound 0.0316 µM, first compound 0.316 µM) was 70.8%. It also gave a viability, T/C (second compound 0.0316 µM, first compound 1 µM) of 98.3%, a viability, T/C (second compound 0.0316 µM, first compound 3.16 µM) of 81.7% and a viability, T/C (second compound 0.0316 µM, first compound 10 µM) of 87.6%. The viability, T/C [3] was 72.5%, the viability, T/C [4] was 68.2% and the viability, T/C (second compound 0.1 µM, first compound 0.316 µM) was 67.3%. For the same molecule, the viability, T/C (second compound 0.1 µM, first compound 1 µM) was 81.8%, the viability, T/C (second compound 0.1 µM, first compound 3.16 µM) was 102% and the viability, T/C (second compound 0.1 µM, first compound 10 µM) was 80.5%. The viability, T/C [5] was 70.2%, the viability, T/C [6] was 78.7% and the viability, T/C (second compound 0.316 µM, first compound 0.316 µM) was 68.5%. It also gave a viability, T/C (second compound 0.316 µM, first compound 1 µM) of 73.7%, a viability, T/C (second compound 0.316 µM, first compound 3.16 µM) of 85.5% and a viability, T/C (second compound 0.316 µM, first compound 10 µM) of 75.9%. The viability, T/C [7] was 81.8%, the viability, T/C [8] was 65.9% and the viability, T/C (second compound 1 µM, first compound 0.316 µM) was 73.2%. For the same molecule, the viability, T/C (second compound 1 µM, first compound 1 µM) was 78.2%, the viability, T/C (second compound 1 µM, first compound 3.16 µM) was 89.9% and the viability, T/C (second compound 1 µM, first compound 10 µM) was 76.5%. For the same molecule, the viability, T/C [9] was 78.3%, the viability, T/C [10] was 62.4% and the viability, T/C (second compound 3.16 µM, first compound 0.316 µM) was 79.3%. It also gave a viability, T/C (second compound 3.16 µM, first compound 1 µM) of 69.5%, a viability, T/C (second compound 3.16 µM, first compound 3.16 µM) of 79% and a viability, T/C (second compound 3.16 µM, first compound 10 µM) of 76.8%. The viability, T/C [11] was 68%, the viability, T/C [12] was 60.6% and the viability, T/C (second compound 10 µM, first compound 0.316 µM) was 76.5%. The viability, T/C (second compound 10 µM, first compound 1 µM) was 85.5%, the viability, T/C (second compound 10 µM, first compound 3.16 µM) was 84.2% and the viability, T/C (second compound 10 µM, first compound 10 µM) was 91.4%.

CC[C@@]1(O)C(=O)OCc2c1cc1n(c2=O)Cc2cc3c(CN(C)C)c(O)ccc3nc2-1 + COC1C(OC(N)=O)C(O)C(Oc2ccc3c(O)c(NC(=O)c4ccc(O)c(CC=C(C)C)c4)c(=O)oc3c2C)OC1(C)C was tested, and the IC50 (second compound 0.0316 µM) was > 100 nM, the IC50 (second compound 0.1 µM) was > 100 nM and the IC50 (second compound 0.316 µM) was > 100 nM. The IC50 (second compound 1 µM) was > 100 nM, the IC50 (second compound 3.16 µM) was > 100 nM and the IC50 (second compound 10 µM) was > 100 nM. For the same molecule, the viability, T/C (second compound 0.0316 µM, first compound 0.000316 µM) was 110%, the viability, T/C (second compound 0.0316 µM, first compound 0.001 µM) was 98.5% and the viability, T/C (second compound 0.0316 µM, first compound 0.00316 µM) was 94.7%. The viability, T/C (second compound 0.0316 µM, first compound 0.01 µM) was 89.1%, the viability, T/C [1] was 67.4% and the viability, T/C [2] was 65.2%. The viability, T/C (second compound 0.1 µM, first compound 0.000316 µM) was 108%, the viability, T/C (second compound 0.1 µM, first compound 0.001 µM) was 110% and the viability, T/C (second compound 0.1 µM, first compound 0.00316 µM) was 91.7%. The viability, T/C (second compound 0.1 µM, first compound 0.01 µM) was 85.8%, the viability, T/C [3] was 55.2% and the viability, T/C [4] was 60.6%. It also gave a viability, T/C (second compound 0.316 µM, first compound 0.000316 µM) of 95.9%, a viability, T/C (second compound 0.316 µM, first compound 0.001 µM) of 101% and a viability, T/C (second compound 0.316 µM, first compound 0.00316 µM) of 87.1%. It also gave a viability, T/C (second compound 0.316 µM, first compound 0.01 µM) of 81.6%, a viability, T/C [5] of 58% and a viability, T/C [6] of 65%. For the same molecule, the viability, T/C (second compound 1 µM, first compound 0.000316 µM) was 94.9%, the viability, T/C (second compound 1 µM, first compound 0.001 µM) was 96.8% and the viability, T/C (second compound 1 µM, first compound 0.00316 µM) was 89.7%. It also gave a viability, T/C (second compound 1 µM, first compound 0.01 µM) of 82.3%, a viability, T/C [7] of 57.3% and a viability, T/C [8] of 61.7%. It also gave a viability, T/C (second compound 3.16 µM, first compound 0.000316 µM) of 107%, a viability, T/C (second compound 3.16 µM, first compound 0.001 µM) of 89.6% and a viability, T/C (second compound 3.16 µM, first compound 0.00316 µM) of 93.4%. For the same molecule, the viability, T/C (second compound 3.16 µM, first compound 0.01 µM) was 78%, the viability, T/C [9] was 65.2% and the viability, T/C [10] was 57.1%. It also gave a viability, T/C (second compound 10 µM, first compound 0.000316 µM) of 104%, a viability, T/C (second compound 10 µM, first compound 0.001 µM) of 90.9% and a viability, T/C (second compound 10 µM, first compound 0.00316 µM) of 95.3%. For the same molecule, the viability, T/C (second compound 10 µM, first compound 0.01 µM) was 88%, the viability, T/C [11] was 65.6% and the viability, T/C [12] was 64.9%.
